Test results published in patent US20040209956A1 (priority 2003, published 2004).

Assays:
Assay type in all cases: physicochemical
[1] = Solubility and solid form in DMF/water/acetonitrile ternary solvent system; conditions: one molar equivalent excess maleic acid
Procedure: The final set of solubility studies were conducted in ternary solvent systems of dimethyl formamide (DMF)/water/acetonitrile (ACN). This system was studied because most of the early success in crystallizing S-[2-[(1-Iminoethyl)amino]ethyl]-2-methyl-L-cysteine maleate salt was found in this solvent mixture. […] Experiments were only conducted for the last four of these compositions at 25° C., but the data was collected for the compositions at 5° C. Supernatant was analyzed after four and nineteen days. Equilibrated solids were also isolated and characterized after nineteen days from most experiments (see Table 5). […] Table 5, lists concentration data in wt % S-[2-[(1-Iminoethyl)amino]ethyl]-2-methyl-L-cysteine from all the experiments at 5 and 25° C. after four and nineteen days of equilibration. […] There is also some temperature dependence for solubility across all the experiments. When the data is analyzed at a fixed ACN content, it seems that the solubility initially decreases before increasing as the DMF content of the system is increased at the expense of water. This trend seems to hold for both 70 and 90% ACN. […] In summary, though this solvent system is complex, it does offer regions of solvent composition conducive to crystallization process design especially for form II.

[2] = HPLC stability of anion exchange titrated samples (Example 5); conditions: product at pH of 11 within a few hours
Procedure: 3.3 g of a sample containing about 1 g of S-[2-[(1-Iminoethyl)amino]ethyl]-2-methyl-L-cysteine di-hydrochloride was diluted to 20 g. Aliquots of prewashed Amberlite IRA400 (OH) resin was added to the solution and samples were periodically withdrawn through a syringe filter. Intermediate resin filtrations were performed at pH of 7.1 and 8.8 by filtering off the resin in solution and then continuing to add fresh resin to the filtrate. This was done to drive the chloride removal equilibrium and minimize product adsorption. After the final pH of 11.2 was attained, the resin was filtered off. The starting materials, intermediate samples and final filtrate were analyzed.
The resulting samples were analyzed by HPLC. No difference was seen between the HPLC traces of the starting material and product at pH of 11 within a few hours.

[3] = Pseudo-titration in water with IRA-400(OH) anion exchange resin, samples assayed by HPLC (Example 3); conditions: for pH of slower rise representative of the pK: pseudo-titration in water, not true equilibrium
Procedure: 60 g of Amberlite IRA400 (OH) resin was prewashed with 4.7 percent (by weight) ammonium hydroxide (50 ml of 28 percent ammonium hydroxide, 250 ml deionized water), followed by extensive washing with deionized water. The final conductivity was 6.1 μS.
Samples containing about 0.9 g of S-[2-[(1-Iminoethyl)amino]ethyl]-2-methyl-L-cysteine di-hydrochloride in 142 ml HCl/water solution, were concentrated on a rotary evaporator at 60° C. to an oil. To the oil, diluted to 60 ml with deionized water, was added aliquots of 0.5 g of washed anion exchange resin while stirring. At five minutes after each aliquot of resin was added, the solution pH was measured and a sample removed through a syringe filter. A total of 9 g of anion exchange resin was added. The final pH was 10.8. The resin was removed by filtration and the filtrate was concentrated to an oil by rotary evaporation at 60° C.; no solids formed. The starting material, final filtrate and all intermediate samples were assayed by HPLC and ion chromatography for chloride.
The diamond (solid line) is pH and square (dashed line) is S-[2-[(1-Iminoethyl)amino]ethyl]-2-methyl-L-cysteine (percent initial, by ion chromatography). […] The diamond (solid line) is pH and triangle (broken line) is chloride (by ion chromatography).
These curves are not true titration curves since samples were withdrawn during the progress of the reaction, and since true equilibrium was not attained before the increments of resin were added. Nevertheless, the graphs of FIG. 2 and FIG. 3 illustrate the expected trends. As resin is added to the S-[2-[(1-Iminoethyl)amino]ethyl]-2-methyl-L-cysteine solution the pH rises with change in slope around pH's of 2, 9 and 11. The pH's of slower rise are representative of the pK's of the carboxylic acid, amine and amidine functional groups, respectively. Above a pH of 10, the S-[2-[(1-Iminoethyl)amino]ethyl]-2-methyl-L-cysteine concentration in solution decreases. At this point, the S-[2-[(1-Iminoethyl)amino]ethyl]-2-methyl-L-cysteine is gaining a net negative charge and is binding to the resin. […] The final chloride content is approximately 0.04 mol equivalents.

[4] = Stability of free zwitterion at different pH by ion pairing gradient HPLC (Example 6); conditions: for Purity At The Time Of Titration: a few hours after preparation; for Purity One Week After Titration: after 1 week
Procedure: Amberlite IRA400 (Cl) resin was rinsed with 3M HCl, water, and then 3M NaOH. Aliquots were 100 ml per 10 g of resin. This procedure was repeated 3 times in order to clean the resin and in order to generate the OH form. A final rinse with water was carried out until the conductivity of the eluting water was 2 μS. The resin was then used to titrate 40 ml of a 50 mg/ml solution of S-[2-[(1-Iminoethyl)amino]ethyl]-2-methyl-L-cysteine di-hydrochloride. The concentration is expressed in terms of zwitterion equivalents. Aliquots were taken throughout the titration, filtered and analyzed by HPLC. Subsamples of the aliquots were saved for a second HPLC analysis 1 week after the titration was performed in order to assess the stability of the samples. Additional aliquots were taken for Cl analysis using an ion selective electrode. The pH was also monitored throughout the titration.
HPLC analyses were performed using an ion pairing gradient method.
Pump A: 20 mM KH2PO4, 10 mM Pentane sulfonic acid, adjusted to pH=3 with phosphoric acid
Gradient: 0% B at 0 min, 26% B at 15 min, 0% B at 15.1 min

physchem = assay: physchem
Text: The parent S-[2-[(1-Iminoethyl)amino]ethyl]-2-methyl-L-cysteine molecule has 3 ionizable groups and can exist in 4 ionization states.
At low pH, the molecule exists as a +2 charged free acid, with the carboxylic acid, amine and amidine moieties protonated. This is the ionization state for the dihydrochloride salt.
As the pH is increased, the carboxylic acid group is the first group to deprotonate, and this produces a net charge on the molecule of +1. If the pH increase is generated by addition of sodium hydroxide to S-[2-[(1-Iminoethyl)amino]ethyl]-2-methyl-L-cysteine, the […] is formed. Other bases would make their corresponding salt forms. If the increase in pH is due to removal of chloride ions by anion exchange processing, the product is the monohydrochloride salt with no sodium or other counterions.
A positive charge still resides on the amidine, and a negative charge still resides on the carboxyl group. In contrast, if such material is made by the addition of sodium hydroxide to the dihydrochloride, the resulting product is the monohydrochloro sodium salt, mixed with one equivalent of sodium chloride. The material prepared by the anion exchange resin approach is the free zwitterion.
Further increases in pH lead to deprotonation of the amidine ion (pKa˜12.5). The molecule in this pH range is the free base and acid salt. […]

[5] = Moisture sorption of Form I; conditions: 90% R.H. and 25° C.
Text: FIG. 12 is a plot of a moisture sorption study of S-[2-[(1-Iminoethyl)amino]ethyl]-2-methyl-L-cysteine maleate.

Molecule: CC(=N)NCCSC[C@](C)(N)C(=O)O.O=C(O)/C=C\C(=O)O [S-[2-[(1-Iminoethyl)amino]ethyl]-2-methyl-L-cysteine maleate]
- Solubility in DMF/water/acetonitrile ([1]; 5/5/90 D/W/A, 5° C., 4 Days): 1.15 Wt %
- Solubility in DMF/water/acetonitrile ([1]; 5/5/90 D/W/A, 5° C., 19 Days): 1.16 Wt %
- Solubility in DMF/water/acetonitrile ([1]; 6.3/3.4/90 D/W/A, 5° C., 4 Days): 1.35 Wt %
- Solubility in DMF/water/acetonitrile ([1]; 6.3/3.4/90 D/W/A, 5° C., 19 Days): 1.02 Wt %
- Solubility in DMF/water/acetonitrile ([1]; 6.3/3.4/90 D/W/A, 25° C., 4 Days): 2.13 Wt %
- Solubility in DMF/water/acetonitrile ([1]; 6.3/3.4/90 D/W/A, 25° C., 19 Days): 1.74 Wt %
- Solubility in DMF/water/acetonitrile ([1]; 7.5/2.5/90 D/W/A, 5° C., 4 Days): 4.19 Wt %
- Solubility in DMF/water/acetonitrile ([1]; 7.5/2.5/90 D/W/A, 5° C., 19 Days): 2.12 Wt %
- Solubility in DMF/water/acetonitrile ([1]; 7.5/2.5/90 D/W/A, 25° C., 4 Days): 2.53 Wt %
- Solubility in DMF/water/acetonitrile ([1]; 7.5/2.5/90 D/W/A, 25° C., 19 Days): 2.45 Wt %
- Solubility in DMF/water/acetonitrile ([1]; 15/15/70 D/W/A, 5° C., 4 Days): 3.31 Wt %
- Solubility in DMF/water/acetonitrile ([1]; 15/15/70 D/W/A, 5° C., 19 Days): 5.71 Wt %
- Solubility in DMF/water/acetonitrile ([1]; 20/10/70 D/W/A, 5° C., 4 Days): 2.91 Wt %
- Solubility in DMF/water/acetonitrile ([1]; 20/10/70 D/W/A, 5° C., 19 Days): 1.75 Wt %
- Solubility in DMF/water/acetonitrile ([1]; 20/10/70 D/W/A, 25° C., 4 Days): 3.46 Wt %
- Solubility in DMF/water/acetonitrile ([1]; 20/10/70 D/W/A, 25° C., 19 Days): 2.33 Wt %
- Solubility in DMF/water/acetonitrile ([1]; 22.5/7.5/70 D/W/A, 5° C., 4 Days): 3.06 Wt %
- Solubility in DMF/water/acetonitrile ([1]; 22.5/7.5/70 D/W/A, 5° C., 19 Days): 2.75 Wt %
- Solubility in DMF/water/acetonitrile ([1]; 22.5/7.5/70 D/W/A, 25° C., 4 Days): 4.90 Wt %
- Solubility in DMF/water/acetonitrile ([1]; 22.5/7.5/70 D/W/A, 25° C., 19 Days): 7.38 Wt %

Molecule: CC(=N)NCCSC[C@](C)(N)C(=O)O [S-[2-[(1-Iminoethyl)amino]ethyl]-2-methyl-L-cysteine]
- Difference between HPLC traces of starting material and product [2]: No difference
- pH of slower rise representative of the pK ([3]; amidine group): ~11
- pH of slower rise representative of the pK ([3]; amine group): ~9
- pH of slower rise representative of the pK ([3]; carboxylic acid group): ~2
- Degradation by HPLC assay of the samples ([3]; samples titrated up to final pH 10.8, Example 3): no degradation
- Purity At The Time Of Titration ([4]; Sample pH 2.13): 98.6 Peak Area %
- Purity One Week After Titration ([4]; Sample pH 2.13): 98.4 Peak Area %
- Purity At The Time Of Titration ([4]; Sample pH 3.83): 98.7 Peak Area %
- Purity One Week After Titration ([4]; Sample pH 3.83): 98.1 Peak Area %
- Purity At The Time Of Titration ([4]; Sample pH 8.48): 98.5 Peak Area %
- Purity One Week After Titration ([4]; Sample pH 8.48): 97.4 Peak Area %
- Purity At The Time Of Titration ([4]; Sample pH 9.37): 98.5 Peak Area %
- Purity One Week After Titration ([4]; Sample pH 9.37): 97.2 Peak Area %
- Purity At The Time Of Titration ([4]; Sample pH 9.78): 98.3 Peak Area %
- Purity One Week After Titration ([4]; Sample pH 9.78): 97.2 Peak Area %
- Purity At The Time Of Titration ([4]; Sample pH 10.27): 98.3 Peak Area %
- Purity One Week After Titration ([4]; Sample pH 10.27): 96.4 Peak Area %
- Purity At The Time Of Titration ([4]; Sample pH 10.83): 96.6 Peak Area %
- Purity One Week After Titration ([4]; Sample pH 10.83): 94.7 Peak Area %
- Purity At The Time Of Titration ([4]; Sample pH 11.6): 98.3 Peak Area %
- Purity One Week After Titration ([4]; Sample pH 11.6): 92.4 Peak Area %
- Purity At The Time Of Titration ([4]; Sample pH 11.75): 97.9 Peak Area %
- Purity One Week After Titration ([4]; Sample pH 11.75): 89.2 Peak Area %
- Purity At The Time Of Titration ([4]; Sample pH .94): 98.0 Peak Area %
- Purity One Week After Titration ([4]; Sample pH .94): 98.3 Peak Area %
- pKa (physchem): ~8.4

Molecule: S-[2-[(1-Iminoethyl)amino]ethyl]-2-methyl-L-cysteine maleate crystalline salt Form I
- Water absorbed by weight [5]: less than one percent
